Counter-ions that a name gives are not always drawn.
How the values were obtained:
Type in all cases: functional, cell-based
HeLa = assay: Cytotoxicity against human HeLa cells after 24 hrs by sulforhodamine B assay
NCI-H1975 = assay: Cytotoxicity against human NCI-H1975 cells after 24 hrs by sulforhodamine B assay; settings: NCI-H1975, 24 h
HL-60 = assay: Cytotoxicity against human HL60 cells after 72 hrs by MTT assay; settings: HL-60, 72 h
HCT-116 = assay: Cytotoxicity against human HCT116 cells after 24 hrs by sulforhodamine B assay; settings: HCT-116, 24 h
[1] = Cytotoxicity against human MCF7/ADM cells after 24 hrs by sulforhodamine B assay
K562 = assay: Cytotoxicity against human K562 cells after 72 hrs by MTT assay; settings: K562, 72 h
A549 = assay: Cytotoxicity against human A549 cells after 24 hrs by sulforhodamine B assay; settings: A549, 24 h
NB-4 = assay: Cytotoxicity against human NB4 cells after 72 hrs by MTT assay; settings: NB-4, 72 h

COC(=O)c1[nH]cc(C/C=C(\C)CCC=C(C)C)c1NC(C)=O
IC50 (HeLa): > 30 µM
IC50 (NCI-H1975): > 30 µM
IC50 (HL-60): > 30 µM
IC50 (HCT-116): > 30 µM
IC50 [1]: > 30 µM
IC50 (K562): > 30 µM
IC50 (A549): > 30 µM
IC50 (NB-4): > 30 µM

C/C=C(\C)[C@H](OC)[C@H](C)/C=C(C)/C=C/C/C(C)=C/Cc1nc(OC)cc(O)c1C
IC50 (HeLa): 0.003 µM
IC50 (NCI-H1975): 0.49 µM
IC50 (HL-60): > 30 µM
IC50 (HCT-116): > 30 µM
IC50 [1]: > 30 µM
IC50 (K562): > 30 µM
IC50 (A549): 0.56 µM
IC50 (NB-4): 0.037 µM

COc1cccc2c1C(=O)c1c(O)c3c(c(O)c1C2=O)C[C@@](O)(C(=O)CO)C[C@@H]3O[C@H]1C[C@H](N)[C@H](O)[C@H](C)O1 [DOXORUBICIN HYDROCHLORIDE]
IC50 (NCI-H1975): 0.2 µM
IC50 [1]: 25.2 µM
IC50 (NB-4): 0.4 µM

From ChEMBL document CHEMBL4118032, “Geranylpyrrol A and Piericidin F from Streptomyces sp. CHQ-64 ΔrdmF” (J Nat Prod, 2017)
